Assay results: PubChem BioAssay (NCI)
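1) Cells in 96-well plates. 2) Compound, 48 h, 5 concentrations. 3) Linear interpolation between surrounding doses. 4) Unreached endpoint = highest concentration. TGI: concentration producing complete growth inhibition.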

Legend:
Experiment in all cases: NCI tumour cell line growth inhibition, 48 h
SW-620 colon = tested on: SW-620 colon
RXF 393 renal = tested on: RXF 393 renal
SF-268 CNS = tested on: SF-268 CNS
MDA-MB-231 breast = tested on: MDA-MB-231 breast
HOP-62 NSCLC = tested on: HOP-62 NSCLC
A498 renal = tested on: A498 renal
MOLT-4 leukemia = tested on: MOLT-4 leukemia
LOX IMVI melanoma = tested on: LOX IMVI melanoma
PC-3 prostate = tested on: PC-3 prostate
NCI-H23 lung = tested on: NCI-H23 lung
786-0 renal = tested on: 786-0 renal
UACC-257 melanoma = tested on: UACC-257 melanoma
SNB-19 CNS = tested on: SNB-19 CNS
ACHN renal = tested on: ACHN renal
CAKI-1 renal = tested on: CAKI-1 renal
NCI/ADR-RES ovarian = tested on: NCI/ADR-RES ovarian
UO-31 renal = tested on: UO-31 renal
HCT-116 colon = tested on: HCT-116 colon
HS 578T breast = tested on: HS 578T breast
OVCAR-5 ovarian = tested on: OVCAR-5 ovarian
IGROV1 ovarian = tested on: IGROV1 ovarian
TK-10 renal = tested on: TK-10 renal
SK-MEL-2 melanoma = tested on: SK-MEL-2 melanoma
HOP-92 NSCLC = tested on: HOP-92 NSCLC
NCI-H226 lung = tested on: NCI-H226 lung
SK-MEL-5 melanoma = tested on: SK-MEL-5 melanoma
CCRF-CEM leukemia = tested on: CCRF-CEM leukemia
OVCAR-8 ovarian = tested on: OVCAR-8 ovarian
OVCAR-3 ovarian = tested on: OVCAR-3 ovarian
MDA-N = tested on: MDA-N
U251 CNS = tested on: U251 CNS
EKVX NSCLC = tested on: EKVX NSCLC
HCC-2998 colon = tested on: HCC-2998 colon
SN12C renal = tested on: SN12C renal
NCI-H460 lung = tested on: NCI-H460 lung
SK-MEL-28 melanoma = tested on: SK-MEL-28 melanoma
BT-549 breast = tested on: BT-549 breast
HT29 colon = tested on: HT29 colon
SNB-75 CNS = tested on: SNB-75 CNS
A549 NSCLC = tested on: A549 NSCLC
SK-OV-3 ovarian = tested on: SK-OV-3 ovarian
OVCAR-4 ovarian = tested on: OVCAR-4 ovarian
UACC-62 melanoma = tested on: UACC-62 melanoma
DU-145 prostate = tested on: DU-145 prostate
SF-539 CNS = tested on: SF-539 CNS
M14 melanoma = tested on: M14 melanoma
HCT-15 colon = tested on: HCT-15 colon
SR leukemia = tested on: SR leukemia
T-47D breast = tested on: T-47D breast
K-562 leukemia = tested on: K-562 leukemia
MALME-3M melanoma = tested on: MALME-3M melanoma
MDA-MB-435 = tested on: MDA-MB-435
SF-295 CNS = tested on: SF-295 CNS
RPMI-8226 leukemia = tested on: RPMI-8226 leukemia
COLO 205 colon = tested on: COLO 205 colon
NCI-H522 lung = tested on: NCI-H522 lung
KM12 colon = tested on: KM12 colon
HL-60(TB) leukemia = tested on: HL-60(TB) leukemia

## CN(C)c1nc2n(CCO)ccnc-2c(=O)n1
SW-620 colon
  TGI: > 100 µM
RXF 393 renal
  TGI: > 100 µM
SF-268 CNS
  TGI: > 100 µM
MDA-MB-231 breast
  TGI: > 100 µM
HOP-62 NSCLC
  TGI: > 100 µM
A498 renal
  TGI: > 100 µM
MOLT-4 leukemia
  TGI: > 100 µM
LOX IMVI melanoma
  TGI: > 100 µM
PC-3 prostate
  TGI: > 100 µM
NCI-H23 lung
  TGI: > 100 µM
786-0 renal
  TGI: > 100 µM
UACC-257 melanoma
  TGI: > 100 µM
SNB-19 CNS
  TGI: > 100 µM
ACHN renal
  TGI: > 100 µM
CAKI-1 renal
  TGI: > 100 µM
NCI/ADR-RES ovarian
  TGI: > 100 µM
UO-31 renal
  TGI: > 100 µM
HCT-116 colon
  TGI: > 100 µM
HS 578T breast
  TGI: > 100 µM
OVCAR-5 ovarian
  TGI: > 100 µM
IGROV1 ovarian
  TGI: > 100 µM
TK-10 renal
  TGI: > 100 µM
SK-MEL-2 melanoma
  TGI: > 100 µM
HOP-92 NSCLC
  TGI: > 100 µM
NCI-H226 lung
  TGI: > 100 µM
SK-MEL-5 melanoma
  TGI: > 100 µM
CCRF-CEM leukemia
  TGI: > 100 µM
OVCAR-8 ovarian
  TGI: > 100 µM
OVCAR-3 ovarian
  TGI: > 100 µM
MDA-N
  TGI: > 100 µM
U251 CNS
  TGI: > 100 µM
EKVX NSCLC
  TGI: > 100 µM
HCC-2998 colon
  TGI: > 100 µM
SN12C renal
  TGI: > 100 µM
NCI-H460 lung
  TGI: > 100 µM
SK-MEL-28 melanoma
  TGI: > 100 µM
BT-549 breast
  TGI: > 100 µM
HT29 colon
  TGI: > 100 µM
SNB-75 CNS
  TGI: > 100 µM
A549 NSCLC
  TGI: > 100 µM
SK-OV-3 ovarian
  TGI: > 100 µM
OVCAR-4 ovarian
  TGI: > 100 µM
UACC-62 melanoma
  TGI: > 100 µM
DU-145 prostate
  TGI: > 100 µM
SF-539 CNS
  TGI: > 100 µM
M14 melanoma
  TGI: > 100 µM
HCT-15 colon
  TGI: > 100 µM
SR leukemia
  TGI: > 100 µM
T-47D breast
  TGI: > 100 µM
K-562 leukemia
  TGI: > 100 µM
MALME-3M melanoma
  TGI: > 100 µM
MDA-MB-435
  TGI: > 100 µM
SF-295 CNS
  TGI: > 100 µM
RPMI-8226 leukemia
  TGI: > 100 µM
COLO 205 colon
  TGI: > 100 µM
NCI-H522 lung
  TGI: > 100 µM
KM12 colon
  TGI: > 100 µM

## c1ccc2c(c1)N[C@@H]1c3[nH]c4ccccc4c3CC[C@H]21
SW-620 colon
  TGI: 33.3 µM
RXF 393 renal
  TGI: 32.6 µM
SF-268 CNS
  TGI: 65.1 µM
MDA-MB-231 breast
  TGI: 29.9 µM
HOP-62 NSCLC
  TGI: 26.9 µM
A498 renal
  TGI: 32 µM
MOLT-4 leukemia
  TGI: 42 µM
LOX IMVI melanoma
  TGI: 29.5 µM
PC-3 prostate
  TGI: 24.6 µM
NCI-H23 lung
  TGI: 33 µM
786-0 renal
  TGI: 28.5 µM
UACC-257 melanoma
  TGI: > 100 µM
SNB-19 CNS
  TGI: 37.9 µM
ACHN renal
  TGI: 68.1 µM
CAKI-1 renal
  TGI: 38.6 µM
NCI/ADR-RES ovarian
  TGI: 28 µM
UO-31 renal
  TGI: 37.2 µM
HCT-116 colon
  TGI: 27.8 µM
HS 578T breast
  TGI: 25.9 µM
OVCAR-5 ovarian
  TGI: 29.4 µM
IGROV1 ovarian
  TGI: 20.9 µM
TK-10 renal
  TGI: > 100 µM
SK-MEL-2 melanoma
  TGI: 31.7 µM
HOP-92 NSCLC
  TGI: 30.6 µM
NCI-H226 lung
  TGI: 31.6 µM
SK-MEL-5 melanoma
  TGI: 27.3 µM
CCRF-CEM leukemia
  TGI: 36.9 µM
OVCAR-8 ovarian
  TGI: 25.6 µM
OVCAR-3 ovarian
  TGI: 27.3 µM
MDA-N
  TGI: 39.2 µM
U251 CNS
  TGI: 27.2 µM
EKVX NSCLC
  TGI: 37.2 µM
SN12C renal
  TGI: 28.5 µM
NCI-H460 lung
  TGI: 33.9 µM
SK-MEL-28 melanoma
  TGI: 35.3 µM
BT-549 breast
  TGI: 37.7 µM
HT29 colon
  TGI: 29.7 µM
SNB-75 CNS
  TGI: 22.8 µM
A549 NSCLC
  TGI: 41.4 µM
SK-OV-3 ovarian
  TGI: 36.7 µM
UACC-62 melanoma
  TGI: 31.6 µM
DU-145 prostate
  TGI: 35.3 µM
SF-539 CNS
  TGI: 31.4 µM
HL-60(TB) leukemia
  TGI: 36.2 µM
M14 melanoma
  TGI: 26.4 µM
HCT-15 colon
  TGI: 65.3 µM
T-47D breast
  TGI: 76.2 µM
K-562 leukemia
  TGI: 27.8 µM
MALME-3M melanoma
  TGI: 22.1 µM
MDA-MB-435
  TGI: 31.1 µM
SF-295 CNS
  TGI: 29.7 µM
RPMI-8226 leukemia
  TGI: 59 µM
COLO 205 colon
  TGI: 27.9 µM
NCI-H522 lung
  TGI: 24.2 µM
KM12 colon
  TGI: 30.7 µM
